The results in this text go back to patent US20260248702A1, “Composition Comprising a UV-Filter Stabilizer” (Symrise AG, priority 2022, published 2026).

This data set is described as follows: Photostability test: E1%/cm absorbance measurement before and after irradiation with 5 MED. Format: physicochemical. The note with it: for Photostability result in words / Lost (%) after irradiation with 5 MED (1,250 J/m^2) / E max (nm): E1%/cm solution; for photo-stabilizing effect in words: summary statements on the photostability test; for Lost (%) after irradiation with 5 MED (1,250 J/m^2): absorbance loss at E max; for E max (nm): wavelength of maximum absorbance; for loss of the photo-unstable UV-filter (absorbance loss), UV-filter alone versus in combination with the MAA compound: after irradiation with 5 MED, no wavelength given in the sentence. How it is done:
The photostability of a UV-filter can be determined in vitro using absorbance measures, by which the loss in absorbance of the UV-filter before and after irradiation, for example with 5 MED, is measured. The loss in absorbance of the UV-filter goes along with the degradation of the UV-filter by one or more photochemical reactions, including photofragmentation, isomerization, tautomerization, photoaddition and the like. UV-filters with an absorbance loss≥20% after irradiation are classified as photo-unstable. Alternatively, the photostability of a UV-filter can be determined by analytical measures, that is by quantitative determination of the amount (i.e. concentration) by which the filter is degraded.
UV-filters are usually tested for photostability to ensure that no degradation of the UV-filter itself or in combination with other substances takes place.
The UV-filter stabilizing properties of mycosporine-like amino acid compounds were explored by comparing the behaviour of UV-filter alone relative to UV-filters in combination with a certain mycosporine-like amino acid compound.
In the present case single photo-unstable UV-filters as well as formulations of photo-unstable filters with certain mycosporine-like amino acid compounds were subjected to photostability testing, described in detail below, to determine the retention of absorption of UVA and UVB radiation (full spectrum analysis) after exposing the sample to 5 MED (minimal erythema) dose (1 MED=250 J/m^2).
Sample preparation: The substance or the formulation to be tested was dissolved in a suitable solvent. For this purpose, a certain amount of the substance or formulation was transferred by means of an analytical balance/pipette into a graduated flask and filled with the selected solvent. The filling up to the calibration mark of the graduated flask was carried out only after complete dissolution of the substance and temperature control at 20° C.
Preparation of solution E 1%/cm: 100 mg of the substance or formulation to be tested were weighed into a graduated flask and filled up to 100 ml with the corresponding solvent. A clear solution was obtained. If necessary, an ultrasonic bath can be used to improve solubility. For further dilution the sample was adjusted to a temperature of 20° C. 1 ml of the dissolved solution was added into a second graduated 100 ml flask, filled up to 100 ml at a temperature of 20° C. The final concentration of the thus obtained solution was 0.001%. (E1%/cm). This solution was used for absorbance measurement and irradiation. Said solution was transferred to a 10 mm quartz cuvette with closure.
Irradiation: Irradiation of the sample was performed for […] with 700 W/m^2 emitted by an Atlas SUN Test CPS. This corresponds to an amount of energy of 5 MED (minimal erythema) dose (=1,250 J/m^2). At the same time, the temperature of the devise was adjusted to max 30° C. in order to avoid strong heating of the sample.
Measurement: The absorbance measurement of the sample in the quartz cuvette with closure (10 mm) was carried out in a wavelength range of 200 nm to 700 nm with a Lambda 25 UV spectrometer. A blank absorbance test was carried out with the corresponding solvent for preparing the samples as described above. The absorbance measurement of the samples was carried out before (pre-irradiation) and after irradiation emitted by a Atlas SUN Test CPS (see above).
The amplitude of the absorbance curve reflects the degree of protection. The higher the amplitude of the curve, the greater the absorbance and the more protection provided at that wavelength. Within the UVB portion of the spectrum (290 nm to 320 nm) this amplitude correlates with the SPF. The greater the breadth of the curve, the more protection provided against longer wave UV ration. In other words, the greater the breadth of the curve, the broader the spectrum of sun protection provided. […]

Where [1] appears, read: after irradiation with 5 MED (1,250 J/m^2).

For `COc1ccc(/N=C2\CC(C)(C)CC3=C2SCC(C(=O)O)N3)cc1OC` (stereo not drawn) [MAA-13, 8-((3,4-dimethoyxphenyl)-imino)-6,6-dimethyl-3,4,5,6,7,8-hexahydro-2-H-benzol[b][1,4]thiazine-3-car-boxylic acid], the “photo-stabilizing effect in words” value is on record as “pronounced photo-stabilizing effect”. For the same compound, the “Absorbance loss at 364 nm” value (E1%/cm solution (0.001%), after irradiation with 5 MED (1,250 J/m^2), read at 364 nm) stood at 5.13%. Besides, the “Photostability result in words” value under setting [1] was “Very photostable molecule”.

Turning to `COc1ccc(/C=C/C(=O)OCCC(C)C)cc1` [Isoamyl p-Methoxycinnamate, Isoamyl-p-Methoxycinnamate], the “Lost (%) after irradiation with 5 MED (1,250 J/m^2)” value is listed as 30.50%; the “E max (nm)” value is recorded as 310 nm; the “loss of the photo-unstable UV-filter (absorbance loss), UV-filter alone versus in combination with the MAA compound” value stood at 30.50%. The “Absorbance loss at 310 nm” value (E1%/cm solution (0.001%), after irradiation with 5 MED (1,250 J/m^2), read at 310 nm) was 30.5%. Moreover, the “Photostability result in words” value under setting [1] is “Not photostable”. The “Critical Wavelength (nm)” value (wavelength at which 90% of the total area under the UV protection curve (280-400 nm) is reached) worked out at 324 nm.

Take `CC1(C)CC(NCC(=O)O)=C/C(=N/c2ccccc2)C1` [MAA-20, 2-[(5,5-dimethyl-3-phenyl-imino-cyclohexen-1-yl)-amino]acetic acid]: under setting [1], the “Photostability result in words” value was “Very photostable molecule”.

As to `COc1ccc(C(=O)CC(=O)c2ccc(C(C)(C)C)cc2)cc1` [Butyl Methoxydibenzoylmethane, Butyl-Methoxydibenzoylmethane or Avobenzone], the “Lost (%) after irradiation with 5 MED (1,250 J/m^2)” value came out at 7.05%; the “E max (nm)” value is listed as 358 nm; the “loss of the photo-unstable UV-filter (absorbance loss), UV-filter alone versus in combination with the MAA compound” value was 7.05%. The “Absorbance loss at 358 nm” value (E1%/cm solution (0.001%), after irradiation with 5 MED (1,250 J/m^2), read at 358 nm) stood at 7.05%. Further, under setting [1], the “Photostability result in words” value is reported as “photostable in this kind of medium”.

On to `CC1(C)CC(NCC(=O)O)=C/C(=N/c2ccc(S(=O)(=O)O)cc2)C1` [MAA-28, 2-[(5,5-dimethyl-3-(4-sulfo-phenyl)imino-cyclohexen-1-yl)amino]acetic acid], for which the “Absorbance loss at 335 nm” value (E1%/cm solution (0.001%), after irradiation with 5 MED (1,250 J/m^2), read at 335 nm) was determined as 15.03%. For the same compound, the “Photostability result in words” value under setting [1] is “A photostable molecule”.

Turning to `CCOC(=O)CNC1=C/C(=N/c2ccccc2)CC(C)(C)C1` [MAA-1, ethyl 2-[[5,5-dimethyl-3-phen-ylimino-cyclohexen-1-yl]amino] acetate], the “photo-stabilizing effect in words” value is reported as “pronounced photo-stabilizing effect”. Also, the “Absorbance loss at 321 nm” value (E1%/cm solution (0.001%), after irradiation with 5 MED (1,250 J/m^2), read at 321 nm) came to 0.53%. Moreover, the “Photostability result in words” value under setting [1] is on record as “Very photostable molecule”.

With `CCCCC(CC)COC(=O)C=Cc1ccc(OC)cc1` (stereo not drawn) [Ethylhexyl Methoxycinnamate, Ethylhexyl-Methoxycinnamate], the “Photostability result in words” value under setting [1] is listed as “Not photostable”.
